Where two headings read alike, the source gives them in different places.
What was measured:
[1] = test system: G. lamblia trophozoites (luciferase expressing, WBC6); assay: microbe, parasite or virus in culture; assay type: cell-based, Giardia lamblia
Method in brief: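 Incubation ran 24 h at 37 °C under anaerobic conditions, with compound added in equal volume to trophozoites (WBC6, luciferase-expressing, 250,000 cells/mL). Bioluminescence was the read-out, cross-checked by MOXI Z counts on a duplicate plate; metronidazole served as control (1:2 dilutions from 40 μM).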

[2] = test system: C. parvum (UGA1 Nluc expressing strain in HCT-8 cells); assay: microbe, parasite or virus in culture; assay type: cell-based, Cryptosporidium parvum; details: initial Pathogen Box screen, single concentration 10 µM, inhibition compared to DMSO wells
Method in brief: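 Parasite growth quantified by NanoLuc luminescence from lysed infected HCT-8 cells, with EC50 fitted from dose curves. Compounds, single-dose 10 μM or serially diluted, were added to confluent 48 h monolayers before infection with bleached UGA1 Nluc oocysts.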

[3] = test system: HepG2 cells; assay: Cytotoxicity against HepG2 cells, AlamarBlue viability assay, 48 hours; assay type: cell-based, human; details: read-out: HepG2 CC50 (this study)
Source text: Mammalian cell cytotoxicity assay data performed on HepG2 (human hepatocellular carcinoma) cells and described as CC20 or CC50 values are provided in supporting documentation that accompanied the Pathogen Box for approximately three quarters of the 400 compounds. However, no details of the assay conditions or parameters were provided. In this study, selected compounds were further tested for cytotoxicity against HepG2 cells as previously described. Briefly, cells were exposed to two-fold serial dilutions of compounds for 48 hours and cytotoxicity was assessed using the AlamarBlue® viability assay (Thermo Fisher Scientific, Waltham, MA). Each dilution was assayed in quadruplicate and concentrations causing 50% growth inhibition (CC50) were calculated by non-linear regression using GraphPad Prism 7 software (GraphPad Software, San Diego, CA).

[4] = test system: HCT-8 host cells; assay: Toxicity to HCT-8 host cells seen in the C. parvum assay; assay type: cell-based; details: no reliable C. parvum EC50 could be determined
Protocol: Growth inhibition and EC50 determination assays were performed using UGA1 Nluc expressing C. parvum strain in HCT-8 cells (ATCC^©, Manassas, VA) as previously described. HCT-8 cells were inoculated onto 96-well plates and allowed to grow for 48 hours to 90–100% confluence and then treated with single concentration (10 μM) or serially diluted compounds prior to oocyst infection. C. parvum oocysts were incubated for 10 minutes in 10% bleach at room temperature and then washed with DPBS. One thousand oocysts per well were applied to the 96 well plates with RPMI-1640 medium supplemented with 10% horse serum and 1% penicillin/streptomycin at the same time as compound addition and incubated for 48 hours. The cell monolayers were lysed for 1 hour before adding Nano-Glo® luciferase reagent (Promega, Madison, WI), and measuring relative luminescence units (RLU) in an EnVision Plate Reader (Perkin Elmer, Waltham, MA). Several parameters, including reproducibility and reliability, were previously evaluated to optimize this assay for low and high-throughput (HTP) screening of small molecule compounds against C. parvum. EC50 values were calculated using Prism 7 software (GraphPad Software, San Diego, CA).

[5] = test system: HepG2 cells; details: ref Pathogen_Box_Activity_Biological_Data_ Structure & Smiles (https://www.pathogenbox.org/about-pathogen-box/composition); read-out: HepG2 CC50 (literature values); cited from earlier work

O=C(Nc1ccc(C(F)(F)F)c(C(F)(F)F)c1)c1cc(Cl)ccc1O [MMV687807]
Giardia (16 uM) Mean % inhibition ([1]; initial Pathogen Box screen, single concentration 16 µM, inhibition compared to DMSO wells): 97% | EC50 ([1]; luciferase expressing G. lamblia trophozoites, 24 hours, D-luciferin bioluminescence read-out, read-out: G. lamblia EC50): 0.51 ± 0.06 µM | Crypto (10 uM) Mean % inhibition [2]: 90% | CC50 [3]: < 5 µM | Toxicity to HCT-8 host cells in the C. parvum assay [4]: too toxic to the HCT-8 host cells | CC50 [5]: 0.7 µM
